Source: PMC7213079, “Hit Identification of New Potent PqsR Antagonists as Inhibitors of Quorum Sensing in Planktonic and Biofilm Grown Pseudomonas aeruginosa” (Frontiers in Chemistry, 2020)

Key:
Type in all cases: cell-based, Pseudomonas aeruginosa
[1] = system: PAO1-L; experiment: AQ (HHQ, PQS) quantification by LC-MS/MS in planktonic cultures, PAO1-L; settings: 3 x IC50
Protocol: (§1) Since PqsR controls expression of the pqsABCDE operon encoding the enzymes required for different stages of AQ biosynthesis, quantification of HHQ, and PQS provides a direct measurement for inhibition of the biosynthetic pathway. Compound 40 was evaluated for its effect on AQ biosynthesis at a concentration three times the corresponding IC50 values for PAO1-L and PA14.
(§2) Figure 5 Effect of compound 40 on AQ production: Quantification of AQ concentrations after treatment with the PqsR inhibitor 40 at 3x IC50 value for PAO1-L and PA14 each strain. The graph represents the average of three independent experiments carried out in triplicate (n = 9) for both strains.
(§3) For each test sample, 100µl of sterile filtered supernatant (the same preparation as for pyocyanin) was spiked with 10µl of an internal standard solution (10µM d4-PQS in MeOH), and diluted with water to a total volume of 500µl. […]
(§4) screening of the LC eluent for specific AQ analytes. Where chromatographic peaks for HHQ and PQS were detected, a peak area was determined and analyte peak area/internal standard peak area calculated.
(§5) AQ quantification in biofilm cultures: […]
(§6) For this experiment, the P. aeruginosa PAO1-L strain and M9 minimal medi um were used. […] The supernatant was col lected and the AQ extraction and quantification were performed following the LC MS/MS protocol described above . […]

[2] = system: PA14; experiment: Pyocyanin quantification, PA14; settings: PA14, compound at 3 x IC50, 16 h, compared with the control
Description: Pyocyanin is an important virulence factor for P. aeruginosa infections and in particular respiratory and urinary tract infections. Pyocyanin is a redox-active phenazine the production of which is regulated via PqsR and PqsE (Hall et al., [2016]; Rampioni et al., [2016]; Higgins et al., [2018]). Therefore, pyocyanin production serves as an indirect readout of the activity of the pqs QS system. […] Compound 40 reduced pyocyanin production by over 80% in both strains in agreement with bioreporter assay results.
Figure 4 Pyocyanin production by Pseudomonas aeruginosa after treatment with pqs inhibitors 8, 14, 23, 34, 25, 26, and 40. Quantification of pyocyanin production after inhibitor treatment at 3 × IC50 for both PAO1-L and PA14. The graph represents the average of three independent experiments carried out in triplicate (n = 9).
PAO1-L Wild type PAO1, Lausanne subline. B.
PAO1-L mCTX::PpqsA- PAO1-L with chromosomal mini-CTX::PpqsA-lux (Soukarieh lux insertion; TcR et al., 2018)
PA14 Wild type UCBPP-PA14 (Rahme et
PA14 mCTX::PpqsA-lux PA14 with chromosomal mini-CTX::PpqsA-lux (Soukarieh insertion; TcR et al., 2018) […]
Pyocyanin quantification: […]
Pyocyanin pigment was extracted into chloroform by mixing 7.5 mL of supernatant with 4.5 mL of chloroform. Pyocyanin w as further extracted into 1.5 mL of 0.2 M HCL which gave a pink/red solution and the absorbance was measured at 520 nm.

[3] = system: PA14; experiment: AQ (HHQ, PQS) quantification by LC-MS/MS in planktonic cultures, PA14; settings: 3 x IC50
Protocol: as §1, §2, §3, §4, §5, §6

Question: Which results are given for `Cn1c2ccccc2c2nnc(SCC(=O)Nc3ccc(Oc4ccccn4)cc3)nc21` [Compound 40, 2-((5-Methyl-5H-[1,2,4]triazino[5,6-b]indol-3-yl)thio)-N-(4-(pyridin-2-yloxy)phenyl)acetamide]?
Answer: production of HHQ and PQS [1]: substantially reduce; inhibition of pyocyanin production [2]: over 80%; production of HHQ and PQS [3]: substantially reduce
